Consider five molecules from US7186840B2, “Quinoline derivatives as anti-inflammatory agents” (Roche Palo Alto LLC, priority 2000, dated 2007).

One experiment addresses T1, COX II (Homo sapiens, UniProt P35354).
T1 construct: made in house
T1 sequence (P35354 18-604): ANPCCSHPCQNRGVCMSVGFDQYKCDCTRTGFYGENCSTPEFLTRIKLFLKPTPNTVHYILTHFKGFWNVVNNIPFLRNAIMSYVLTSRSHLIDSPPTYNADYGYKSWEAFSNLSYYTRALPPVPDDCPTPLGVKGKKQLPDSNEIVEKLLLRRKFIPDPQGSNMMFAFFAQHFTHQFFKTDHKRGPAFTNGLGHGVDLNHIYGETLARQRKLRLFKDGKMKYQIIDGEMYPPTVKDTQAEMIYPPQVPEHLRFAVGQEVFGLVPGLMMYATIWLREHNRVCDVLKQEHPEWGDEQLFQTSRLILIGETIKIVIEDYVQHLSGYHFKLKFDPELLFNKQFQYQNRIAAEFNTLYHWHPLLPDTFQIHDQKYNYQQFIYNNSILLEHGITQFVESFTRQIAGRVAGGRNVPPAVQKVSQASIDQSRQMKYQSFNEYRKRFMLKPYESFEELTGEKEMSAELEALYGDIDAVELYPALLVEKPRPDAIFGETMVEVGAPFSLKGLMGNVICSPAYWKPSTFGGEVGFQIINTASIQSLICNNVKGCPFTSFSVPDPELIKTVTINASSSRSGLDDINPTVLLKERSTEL
The experiment is described as follows: Inhibition of COX II in vitro (radiometric assay). The settings on record: partially purified enzyme, 10 min preincubation, 20 micromolar [14C]arachidonic acid. Type of experiment: biochemical. As for the experimental part: (§1) The COX I and COX II inhibitory activity of compounds of this invention in vitro was determined using partially purified COX I and COX II enzymes, prepared as described in J. Barnett et. al., Biochim Biophys. Acta, 1209, 130–139 (1994).
(§2) COX I and COX II samples were diluted with Tris-HCl buffer (50 mM Tris-HCl, pH 7.9) containing 2 mM EDTA and 10% glycerol and reconstituted by incubating first with 2 mM phenol for 5 minutes and then with 1 micromolar hematin for an additional 5 minutes. 125 μl of the reconstituted COX I or COX II enzyme were preincubated for 10 minutes at room temperature in a shaking water bath with the compounds of the invention dissolved in 2–15 μl of DMSO or the carrier vehicles (control samples). The enzyme reaction was initiated by adding 25 μl of 1-[14 C]arachidonic acid (80,000–100,000 cpm/tube; 20 micromolar final concentration) and the reaction was allowed to continue for an additional 45 seconds. The reaction was terminated by adding 100 μl of 2N HCl and 750 μl water. An aliquot (950 μl) of the reaction mixture was loaded onto a 1 mL C18 Sep-Pak column (J. T. Baker, Phillipsburg, N.J.) which had been previously washed with 2–3 mL methanol and equilibrated with 5–6 mL distilled water. Oxygenated products were quantitatively eluted with 3 mL of acetonitrile/water/acetic acid (50:50:0.1, v/v) and the radioactivity in the eluate determined in a scintillation counter.
(§3) The COX inhibitory activities (expressed as IC50, the concentration causing 50% inhibition of the COX enzyme being assayed) of some exemplary compounds of the invention were: […]

The target of a further experiment is T2, COX I (Homo sapiens, UniProt P23219).
T2 construct: made in house
The experiment is described as follows: Inhibition of COX I in vitro (radiometric assay). The experiment is classed as biochemical. The following applies: partially purified enzyme, 10 min preincubation, 20 micromolar [14C]arachidonic acid. The protocol: as §1, §2, §3

Where only a bound is given, the exact number is not on record here.

T2 sequence (P23219 24-599): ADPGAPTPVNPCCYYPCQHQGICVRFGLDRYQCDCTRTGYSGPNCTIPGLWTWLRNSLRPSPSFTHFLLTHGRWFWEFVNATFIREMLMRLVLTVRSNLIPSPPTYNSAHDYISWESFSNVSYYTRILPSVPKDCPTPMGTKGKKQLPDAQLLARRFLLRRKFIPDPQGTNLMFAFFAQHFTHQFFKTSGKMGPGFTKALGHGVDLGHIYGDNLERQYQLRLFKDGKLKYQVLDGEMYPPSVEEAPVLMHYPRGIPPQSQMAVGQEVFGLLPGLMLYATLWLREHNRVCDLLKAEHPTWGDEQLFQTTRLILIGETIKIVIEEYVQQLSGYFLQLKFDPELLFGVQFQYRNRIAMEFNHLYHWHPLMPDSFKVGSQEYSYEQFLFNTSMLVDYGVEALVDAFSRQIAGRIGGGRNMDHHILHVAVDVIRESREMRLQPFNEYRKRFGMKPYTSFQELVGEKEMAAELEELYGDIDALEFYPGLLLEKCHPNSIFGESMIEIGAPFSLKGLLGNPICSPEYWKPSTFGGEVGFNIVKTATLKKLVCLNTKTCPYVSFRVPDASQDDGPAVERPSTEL

As a reminder, the IC50 is the concentration that gives 50% inhibition. In the case of `COc1ccc2nc(S(C)(=O)=O)ccc2c1Sc1ccc(Cl)cc1Cl` [Cpd 107, 5-(2,4-dichloro-phenylsulfanyl)-2-methanesulfonyl-6-methoxy-quinoline], the values for the IC50 at COX II and against COX I were below 0.3 µM and above 40 µM, respectively.

For the molecule `COc1ccc2nc(S(C)(=O)=O)ccc2c1Sc1ccc(F)cc1Cl` [Cpd 105, 5-(2-chloro-4-fluoro-phenylsulfanyl)-2-methanesulfonyl-6-methoxy-quinoline], the figures for the IC50 at COX II and at COX I were below 0.2 µM and above 40 µM, respectively.

`COc1ccc2nc(S(C)(=O)=O)ccc2c1Sc1ccccc1Cl` [Cpd 104, 5-(2-chloro-phenylsulfanyl)-2-methanesulfonyl-6-methoxy-quinoline]: the IC50 against COX II is below 0.2 µM; on COX I, above 40 µM.

Take `COc1ccc2nc(S(C)(=O)=O)ccc2c1Sc1ccc(F)cc1F` [Cpd 101, 5-(2,4-Difluoro-phenylsulfanyl)-2-methanesulfonyl-6-methoxy-quinoline]: the IC50 at COX II is below 0.2 µM; against COX I, above 40 µM.

On to `COc1ccc2nc(S(C)(=O)=O)ccc2c1Sc1ccc(Br)cc1` [Cpd 106, 5-(4-bromo-phenylsulfanyl)-2-methanesulfonyl-6-methoxy-quinoline], for which the results for the IC50 at COX II and at COX I were below 0.3 µM and above 40 µM, respectively.
